# Reference: paper PMC12239085, “Silver(I) Ions Bridging Oxadiazole-2-thione Derivatives with Mitochondriotropic Agents: A Promising Strategy for Potent Anticancer Chemotherapy” (Inorganic Chemistry, 2025)
# Where “and” joins values, the source holds several entries; their conditions need not be identical. Equal values may be shown once.
# System: MCF-7 cells
# Assay: AO/EB staining detection of apoptotic cells
# Assay type: cell-based, human
# Settings: 48 h; for percentage of apoptotic cells: MCF-7, IC50 values, untreated 11.7 ± 2.8%
# Method: Apoptotic MCF-7 cells were quantified and characterized using the AO/EB staining assay under fluorescence microscopy, and the results were correlated with previously observed morphological changes in the cells. The type of cell death was evaluated after incubation with complexes 1–5 for 48 h. This assay detects nuclear changes based on differences in membrane integrity between live and apoptotic cells. The fluorescent EB dye stains red only those cells that have lost membrane integrity, while the fluorescent AO dye stains both live and dead cells green. , Untreated MCF-7 cells display green radiation emitting nuclei. The percentage of apoptosis in untreated cells was calculated as 11.7 ± 2.8%. In apoptotic cells, varying degrees of changes are observed. Early stages of apoptosis are indicated by greenish-yellow fluorescent nuclei or green-yellow fragments, while late stages are characterized by orange fluorescence or the presence of orange fragments.
# The MCF-7 cells were seeded into a 24-well plate (70,000 cells per well) and cultured at 37 °C for 24 h. […] Control and treated cells were collected after 48 h, the cells were harvested, washed twice with PBS and centrifuged. Twenty-five μL of cell suspension in PBS were incubated with 50 μg/mL AO and 50 μg/mL EB solution. Then, the cells were mixed gently and 10 μL of cells in suspension was placed on a glass slide and a coverslip was placed over it. At random, 300 cells were immediately observed in a fluorescent microscope (Optika inverted fluorescence microscope) and examined at ×60 magnification. ,
Compound,relative rate of apoptotic MCF-7 cells in respect to untreated control,percentage of apoptotic cells
Fc1ccccc1-c1nnc([S][Ag]([PH](c2ccccc2)(c2ccccc2)c2ccccc2)([PH](c2ccccc2)(c2ccccc2)c2ccccc2)[PH](c2ccccc2)(c2ccccc2)c2ccccc2)o1 [compound 2],5.8,64.8 ± 2.5%
Fc1ccc(-c2nnc([S][Ag]([PH](c3ccccc3)(c3ccccc3)c3ccccc3)([PH](c3ccccc3)(c3ccccc3)c3ccccc3)[PH](c3ccccc3)(c3ccccc3)c3ccccc3)o2)cc1 [compound 3],4.01 and 4.0,46.9 ± 8.0%
c1ccc(-c2nnc([S][Ag]([PH](c3ccccc3)(c3ccccc3)c3ccccc3)([PH](c3ccccc3)(c3ccccc3)c3ccccc3)[PH](c3ccccc3)(c3ccccc3)c3ccccc3)o2)cc1 [compound 1],5.13 and 5.1,60.0 ± 5.2%
Clc1cccc(-c2nnc([S][Ag]([PH](c3ccccc3)(c3ccccc3)c3ccccc3)([PH](c3ccccc3)(c3ccccc3)c3ccccc3)[PH](c3ccccc3)(c3ccccc3)c3ccccc3)o2)c1 [compound 5],5.5,64.3 ± 8.2%
Clc1ccccc1-c1nnc([S][Ag]([PH](c2ccccc2)(c2ccccc2)c2ccccc2)([PH](c2ccccc2)(c2ccccc2)c2ccccc2)[PH](c2ccccc2)(c2ccccc2)c2ccccc2)o1 [compound 4],4.03 and 4.0,47.2 ± 5.6%
